Measured values: patent publication US9012190B2, “Use of thiamine and nicotine adenine dinucleotide for butanol production” (Butamax Advanced Biofuels LLC, priority 2011, dated 2015)

Key:
[1] = system: isobutanol producing NYLA84 strain; experiment: Shake flask fermentation with addition of thiamine or yeast extract (Example 1); type: cell-based, Saccharomyces cerevisiae
Protocol: The medium contained the following ingredients per L of water: 6.7 g Yeast Nitrogen Base (YNB) w/o amino acids (Difco 0919-15-3); 2.8 g Yeast Synthetic Drop-out Medium Supplement Without histidine, leucine, tryptophan, and uracil (Sigma Y2001); 20 mL of 1% (w/v) L-leucine; 4 mL of 1% (w/v) L-tryptophan; 5 g ethanol; 3 g glucose; and 1.0 mL of the ergosterol and Tween 80. In order to obtain 10 mL ergosterol and Tween 80 solution, 100 mg of ergosterol were dissolved in 5 mL 100% EtOH and 5 mL Tween 80 and then heated until sterile and dissolved (10 min at 70° C.).
In the shake flask experiments described, the following were added to 125 mL shake flasks: 16 mL of the culture broth; 2 mL of the 1 M MES buffer; and 2 mL of the addition (H2O, YE, TH). The following additions were prepared: yeast extract (YE, final concentration 10 g/L); thiamine (TH, final concentration 6, 60, and 100 mg/L).
In order to provide the culture broth, seed cultures were started in 125 mL shake flasks with air permeable lids (10 mL medium inoculated with 1 mL inoculum from a frozen vial). […] The OD was measured at λ=600 nm (Spectrophotometer from Thermo Electron Corporation Heλios Alpha, USA). […] Ergosterol and Tween 80 was added to the medium to a final concentration of 1 mL/L. Seed (10 mL) was inoculated into 2 L shake flask with 135 mL of the medium. Separately, 2 mL of the H2O, YE, TH additions were added to new 125 ml shake flasks. Into the 2 L shake flask, 16 mL of 1 M MES buffer was added and 5.3 mL of 50% (w/w) glucose solution. Eighteen (18) mL of this culture broth was distributed into the 125 mL shake flasks with prepared additions. The aerobic shake flasks with air permeable lid were incubated at 30° C. and 260 rpm. The anaerobic shake flasks were treated in anaerobic hood and incubated at 30° C. and 260 rpm. The anaerobic shake flasks were sampled in the anaerobic hood.
The effect of thiamine on isobutanol production was analyzed using shake flask fermentation. Shake flask fermentations were performed under both aerobic and anaerobic conditions in the presence of water (negative control), yeast extract (YE, positive control, final concentration 10 g/L), or thiamine (TH, final concentration 100 mg/L) with isobutanol producing NYLA84 strain. The final biomass (X), isobutanol concentrations, and specific isobutanol production rates (qP) were measured and are shown in FIG. 1.

[2] = system: isobutanol producing NYLA84 strain; experiment: Shake flask cultivations with nicotinic acid, vitamin solution or YEP (Example 6); type: cell-based, Saccharomyces cerevisiae
Protocol: (§1) The aerobic shake flasks with air permeable lid were incubated at 30° C. and 260 rpm.

[3] = system: isobutanol producing NYLA 84 strain; experiment: Aerobic shake flask range finding with nicotinic acid (Example 7); type: cell-based, Saccharomyces cerevisiae; details: NA concentrations as low as 6 mg/L, all measurement points (2.00 h, 18.75 h, 24.5 h)
Protocol: The strain used in this Example was the isobutanol producing NYLA 84 strain, described elsewhere herein. Vitamin stock solution contained biotin, 50 mg/L; Ca-panthotenate, 1 g/L; nicotinic acid, 1 g/L; myo-inositol, 25 g/l; thiamine.HCl, 1 g/L; pyridoxine hydrochloride, 1 g/L; p-aminobenzoic acid, 0.2 g/L; riboflavin, 0.2 g/L; and folic acid, 2 mg/L. One liter (1 L) of ergosterol and Tween 80 stock solution contains 10 g of ergosterol dissolved in 500 mL 100% ethanol solution and 500 mL Tween 80.
Glucose and fermentation by-product analysis were determined by a Waters HPLC utilizing a Bio-Rad Aminex HPX-87H column with diode array (DA) operated at 210 nm and a refractive index (RI) detector at 50° C.
Several seed cultures inoculated each with a 1 mL glycerol frozen stock vial were grown in 10 mL base medium for 24 h. At the start of the range finding experiment, seed cultures were pooled and 16 mL each of the pooled seed culture were distributed into 125 mL shake flasks, 2 mL of 1 M MES buffer added, and additionally 2 mL of (a) bidestilled water, (b-d) nicotinic acid (NA) stock solutions with 60 mg/L, 600 mg/L and 1000 mg/L of NA dissolved in bidestilled water, respectively, and (e) YE stock solution with 200 g/l YE. The aerobic shake flasks with air permeable lid were incubated at 30° C. and 260 rpm. Initial OD at λ=600 nm in the cultures was 0.764.

[4] = system: BP1063 isobutanol producing strain; details: bioreactor; NA concentrations of as low as 5 mg/L; vs water control
Protocol: One liter (1 L) of inoculum medium contained: 6.7 g, Yeast Nitrogen Base w/o amino acids (Difco 0919-15-3); 2.8 g, Yeast Synthetic Drop-out Medium Supplement Without histidine, leucine, tryptophan and uracil (Sigma Y2001); 20 mL of 1% (w/v) L-leucine; 4 mL of 1% (w/v) L-tryptophan; 1 mL of ergosterol and Tween 80 solution; 3 g of ethanol; 3 g of glucose. Preparation of ergosterol and Tween 80 solution: for 10 mL of the solution, 100 mg of ergosterol was dissolve in 5 mL 100% EtOH and 5 mL Tween 80. It was heated at 70° C. for 10 minutes.
A 125 mL shake flask was inoculated directly from a frozen vial by pipetting the whole vial culture (approx. 1 ml) into 10 mL of the inoculum medium. The flask was incubated at 260 rpm and 30° C. The strain was grown overnight until OD about 1.0. At this point four 2 L baffled shake flasks with 90 mL of the inoculum medium were inoculated from the overnight culture. […]
OD at λ=600 nm was determined in a HEλIOS a spectrophotometer (Thermo Electron Corporation, USA). […] Glucose and fermentation by-product analysis were determined by HPLC utilizing a Shodex® SH-1011 column with a Shodex® SH-G guard column (both available from Waters Corporation, Milford, Mass.), with diode array (DA) and refractive index (RI) detector. […]
Isobutanol was measured in oleyl alcohol, culture broth, and off-gas samples by GC method, HPLC method, and mass-spectrometry, respectively.

[5] = system: isobutanol producing NYLA84 strain; experiment: Shake flask cultivations with nicotinic acid, vitamin solution or YEP (Example 8); type: cell-based, Saccharomyces cerevisiae
Protocol: as §1

[6] = aerobic shake flasks, thiamine 100 mg/L
[7] = aerobic (25.8 h) and anaerobic (24.2 h) shake flasks
[8] = isobutanol, glucose consumption, biomass
[9] = aerobic and anaerobic shake flasks, sampled after 6.3 and 20.8 h

Row | SMILES | initial qP compared with yeast extract ([1]; aerobic flasks, thiamine 100 mg/L vs yeast extract 10 g/L) | initial qP higher than the control ([1]; aerobic flasks, thiamine 100 mg/L, vs water control) | initial qP (specific isobutanol production rate) ([1]; aerobic flasks, thiamine final concentration 100 mg/L, first 24 fermentation hours) | accumulation of keto-isovaleric acid in control shake flasks compared to flasks with the addition ([1]; aerobic shake flasks) | isobutanol titers at the three concentrations ([1]; aerobic shake flasks, final concentrations of 6, 60, and 100 mg/L thiamine) | final biomass concentration compared to the control [1, 6] | titers of isobutanol compared to the control [1, 6] | biomass formation compared to the negative control [2, 7] | consumption of glucose compared to the negative control [2, 7] | isobutanol production compared to the negative control [2, 7] | increase under anaerobic versus aerobic conditions [2, 8] | biomass titers compared to control culture without NA [3] | isobutanol titers compared to control culture without NA [3] | final isobutanol titers in the aqueous phase [4] | biomass formation compared to the negative control [5, 9] | consumption of glucose compared to the negative control [5, 9] | isobutanol production compared to the negative control [5, 9] | increase under anaerobic versus aerobic conditions [5, 8]
1 | Cc1ncc(C[n+]2csc(CCO)c2C)c(N)n1 [thiamine] | about the same as achieved with yeast extract | 75% | 0.14 g/g/h | several times higher | similar | higher | higher |  |  |  |  |  |  |  |  |  |  | 
2 | O=C(O)c1cccnc1 [NA, nicotinic acid] |  |  |  |  |  |  |  | increased | increased | increased | significantly more pronounced under anaerobic than under aerobic conditions | significantly increased | significantly increased | improved | increased | increased | increased | significantly more pronounced under anaerobic than under aerobic conditions
